US20070203098A1, “Pten Inhibitors” (priority 2004, published 2007)
Counter-ions that a name gives are not always drawn. Like-named read-outs stand apart in the source and are kept apart here.

Key:
Assay type in all cases: biochemical
[1] = molecular target: T1, PTEN (Homo sapiens, UniProt P60484); test: PTEN Inhibition Assay: General Screening
[2] = molecular target: T1, PTEN; test: PTEN Inhibition Assay: IC50 Determinations
[3] = molecular target: T2, PTP1B (Homo sapiens, UniProt P18031); test: PTP1B Inhibition Assay: IC50 Determinations
T2 sequence (P18031 1-435): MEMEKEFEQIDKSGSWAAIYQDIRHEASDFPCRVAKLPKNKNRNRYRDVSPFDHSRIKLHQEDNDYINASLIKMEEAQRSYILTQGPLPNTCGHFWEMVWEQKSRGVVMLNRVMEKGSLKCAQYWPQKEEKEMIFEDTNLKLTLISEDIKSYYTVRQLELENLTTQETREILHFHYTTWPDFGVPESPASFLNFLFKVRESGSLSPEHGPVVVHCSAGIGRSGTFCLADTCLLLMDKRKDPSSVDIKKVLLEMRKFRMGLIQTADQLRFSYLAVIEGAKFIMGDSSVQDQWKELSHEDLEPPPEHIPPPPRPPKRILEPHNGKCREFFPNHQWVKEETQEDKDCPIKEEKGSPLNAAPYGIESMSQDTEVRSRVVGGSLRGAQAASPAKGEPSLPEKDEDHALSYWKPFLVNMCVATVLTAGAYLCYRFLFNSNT

[4] = read-out: % Inhibition @ 250 uM
[5] = 250 uM, Table 23 polyamides, read-out: % Inhibition @250 uM
[6] = 250 uM, Table 27 isatins, read-out: % Inhibition @250 uM
[7] = 250 uM, Table 15 diamides, furazan core, read-out: % Inhibition @ 250 uM
[8] = read-out: % Inhibition at 250 uM

T1 sequence (P60484 whole entry, species assumed): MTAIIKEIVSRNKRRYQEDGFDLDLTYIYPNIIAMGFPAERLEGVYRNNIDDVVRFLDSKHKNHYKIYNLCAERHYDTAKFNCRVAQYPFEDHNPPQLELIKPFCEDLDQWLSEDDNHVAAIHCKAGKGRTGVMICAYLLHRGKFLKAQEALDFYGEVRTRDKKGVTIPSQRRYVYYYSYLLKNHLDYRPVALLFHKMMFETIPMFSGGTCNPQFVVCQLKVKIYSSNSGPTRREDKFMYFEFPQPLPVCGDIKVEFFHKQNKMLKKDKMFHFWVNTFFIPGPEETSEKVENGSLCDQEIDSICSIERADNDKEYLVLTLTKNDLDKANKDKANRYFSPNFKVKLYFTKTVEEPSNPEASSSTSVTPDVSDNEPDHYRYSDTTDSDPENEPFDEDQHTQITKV

Compound | inhibition at 250 µM [1, 4] | IC50 ([2]; Table 29, read-out: PTEN IC50) | IC50 ([3]; Table 29, read-out: PTP1B IC50) | also measured
COc1ccc(OCC(=O)Nc2ccc3c(c2)C(=O)C(=O)c2ccccc2-3)cc1 [SF1751-000] | 99.2% | 0.3 µM | 3 µM | 
Nc1nonc1NC(=O)N/N=C/CCC/C=N/NC(=O)Nc1nonc1N [SF1567-000] |  |  |  | inhibition at 250 µM [1, 5]: 60.2%
O=C1Nc2c(Cl)ccc(Cl)c2C1=O [SF1822-000] |  | 24.5 µM |  | inhibition at 250 µM [1, 6]: 97.3%
Cc1ccc(C)c(OCC(=O)Nc2nonc2NC(=O)COc2cc(C)ccc2C)c1 [SF1609-000] |  | 80 to 113 µM | 5.8 µM | inhibition at 250 µM [1, 7]: 58 to 80%
O=C1C(=O)c2cc(NS(=O)(=O)c3cccs3)ccc2-c2ccccc21 [SF1798-000] | 93.6% |  |  | IC50 [2]: 0.369 µM; IC50 [3]: < 10 µM
O=C1C(=O)c2cc(NS(=O)(=O)c3ccc([N+](=O)[O-])cc3)ccc2-c2ccccc21 [SF1774-000] | 98.6% | 0.214 µM | 0.331 µM | 
CC(C)(C)c1ccc(S(=O)(=O)Nc2ccc3c(c2)C(=O)C(=O)c2ccccc2-3)cc1 [SF1780-000] | 98% | 0.269 µM | 0.12 µM | 
Cc1ccc(OCC(=O)Nc2ccc3c(c2)C(=O)C(=O)c2ccccc2-3)cc1 [SF1771-000] | 99.2% |  |  | IC50 [2]: 0.395 µM; IC50 [3]: 0.442 µM
O=P(O)(O)Oc1cccc2ccccc12 [SF1684-100, α-Naphthyl Acid Phosphate, Monosodium Salt, reference compound] |  |  |  | inhibition at 250 µM [1, 8]: 11.2%
CCN(N=O)c1ccc(O)c(O)c1 [SF1681-000, 3,4-Dephostatin, Ethyl-, reference compound] |  |  |  | inhibition at 250 µM [1, 8]: 82.4%; IC50 [2]: 50 µM; IC50 [3]: 50 µM
O=C1CC(S(=O)(=O)O)c2ccccc2C1=O (stereo not shown) [SF1735-000] |  |  | > 250 µM | IC50 ([2]; Table 28, read-out: PTEN IC50): 20 µM
O=C(Nc1ccc2c(c1)C(=O)C(=O)c1ccccc1-2)c1cccs1 [SF1799-000] | 99.4% |  |  | IC50 [2]: 0.733 µM; IC50 [3]: < 10 µM
CC(C)c1ccccc1OCC(=O)Nc1nonc1NC(=O)COc1ccccc1C(C)C [SF1617-000] |  | 66 to 84 µM | 13.6 µM | inhibition at 250 µM [1, 7]: 3 to 81%
O=C(CCc1ccccc1[N+](=O)[O-])Nc1ccc2c(c1)C(=O)C(=O)N2 [SF1812-000] |  |  | > 10 µM | inhibition at 250 µM [1, 6]: 40.5%
CC(C)(C)c1ccc(C(=O)Nc2ccc3c(c2)C(=O)C(=O)c2ccccc2-3)cc1 [SF1803-000] | 83% | 14.6 µM | < 1 µM | 
CC1(C)[C@H](C=C(Br)Br)[C@@H]1C(=O)OC(C#N)c1cccc(Oc2ccccc2)c1 (stereo partly shown) [SF1667-000, Deltamethrin, reference compound] |  |  |  | inhibition at 250 µM [1, 8]: 0.3%
O=C1C(=O)N(Cc2ccc(Cl)cc2Cl)c2ccc([N+](=O)[O-])cc21 [SF1783-000] |  | 4.6 µM | 1.1 µM | inhibition at 250 µM [1, 6]: 97.8%
O=C(COc1ccccc1[N+](=O)[O-])Nc1ccc2c(c1)C(=O)C(=O)c1ccccc1-2 [SF1796-000] | 99% | 0.65 µM | < 10 µM | 
O=C1C(=O)c2cc(NCc3ccccc3)ccc2-c2ccccc21 [SF1800-000] | 98% |  |  | IC50 [2]: 0.862 µM; IC50 [3]: < 10 µM
CCOC(=O)Nc1ccc2c(c1)C(=O)C(=O)c1ccccc1-2 [SF1808-000] | 96.2% |  |  | IC50 [3]: < 1 µM
O=C(COc1ccccc1)NC1CCCCC1NC(=O)COc1ccccc1 (stereo not shown) [SF1647-000] |  |  |  | inhibition at 250 µM ([1]; 250 uM, Table 16, read-out: % Inhibition @ 250 uM): 2.2%
O=C1Nc2ccc(Cl)cc2C1=O [SF1816-000] |  | 80.7 µM | 10 to 100 µM | inhibition at 250 µM [1, 6]: 95%
CCOC(=O)CNC(=O)C(c1ccc2ncccc2c1)N(CC1CCCO1)C(=O)c1snc(C(N)=O)c1N (stereo not shown) [SF1566-000] |  |  |  | inhibition at 250 µM [1, 5]: 70.6%
Cc1ccc(C(=O)Nc2ccc3c(c2)C(=O)C(=O)N3)cc1 [SF1778-000] |  | 22.1 µM | 11 µM | inhibition at 250 µM [1, 6]: 98.5%
NCCCC(O)(P(=O)([O-])O)P(=O)(O)O.[Na+] [CC1669-100, Alendronate, Sodium, Trihydrate, reference compound] |  |  |  | % Inhibition @ 250 uM in PTEN Assay [1]: minimal activity; inhibition at 250 µM ([1]; read-out: % Inhibition @ 250 uM in PTEN Assay): -0.9 to 20%
CC(C)C(C(=O)OC(C#N)c1cccc(Oc2ccccc2)c1)c1ccc(Cl)cc1 (stereo not shown) [SF1683-000, Fenvalerate, reference compound] |  |  |  | inhibition at 250 µM [1, 8]: -25.5%
CCOC(=O)C(=O)Nc1ccc2c(c1)C(=O)C(=O)c1ccccc1-2 [SF1786-000] | 99.8% |  |  | IC50 [2]: 0.692 µM; IC50 [3]: < 1 µM
